From ChEMBL document CHEMBL1201862, “PubChem BioAssay data set” (2004)
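Cultured in 96-well plates, cells were exposed to test compound for 48 hours across five concentrations. Abbreviation: GI50, concentration required for 50% inhibition of growth.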 Active and inactive are the calls of the source. Cut-off read from the data, not from the text of the source: active = GI50 up to about 1.1 µM and inactive = higher.

Assays:
Test in all cases: DTP human tumour cell line panel, 48 h
786-0 = tested on: 786-0
A498 = tested on: A498
A549 = tested on: A549
ACHN = tested on: ACHN
CCRF-CEM = tested on: CCRF-CEM
DLD-1 = tested on: DLD-1
EKVX = tested on: EKVX
HCC 2998 = tested on: HCC 2998
HCT-116 = tested on: HCT-116
HCT-15 = tested on: HCT-15
HOP-18 = tested on: HOP-18
HOP-62 = tested on: HOP-62
HT-29 = tested on: HT-29
IGROV-1 = tested on: IGROV-1
K562 = tested on: K562
KM-20L2 = tested on: KM-20L2
KM12 = tested on: KM12
LXFL 529 = tested on: LXFL 529
M14 = tested on: M14
M19-MEL = tested on: M19-MEL
MOLT-4 = tested on: MOLT-4
Malme-3M = tested on: Malme-3M
NCI-H226 = tested on: NCI-H226
NCI-H23 = tested on: NCI-H23
NCI-H460 = tested on: NCI-H460
NCI-H522 = tested on: NCI-H522
OVCAR-5 = tested on: OVCAR-5
OVCAR-8 = tested on: OVCAR-8
RPMI-8226 = tested on: RPMI-8226
RXF 393 = tested on: RXF 393
RXF 631 = tested on: RXF 631
SF-268 = tested on: SF-268
SF-295 = tested on: SF-295
SF-539 = tested on: SF-539
SK-MEL-28 = tested on: SK-MEL-28
SK-MEL-2 = tested on: SK-MEL-2
SK-MEL-5 = tested on: SK-MEL-5
SK-OV-3 = tested on: SK-OV-3
SN12C = tested on: SN12C
SNB-19 = tested on: SNB-19
SNB-75 = tested on: SNB-75
SNB-78 = tested on: SNB-78
SR = tested on: SR
SW-620 = tested on: SW-620
TK-10 = tested on: TK-10
U-251 = tested on: U-251
UACC-257 = tested on: UACC-257
UO-31 = tested on: UO-31
XF498 = tested on: XF498
CAKI-1 = tested on: CAKI-1
COLO 205 = tested on: COLO 205
DMS-114 = tested on: DMS-114
DMS-273 = tested on: DMS-273
HL-60 = tested on: HL-60
HOP-92 = tested on: HOP-92
LOX IMVI = tested on: LOX IMVI
OVCAR-3 = tested on: OVCAR-3
OVCAR-4 = tested on: OVCAR-4
UACC-62 = tested on: UACC-62

In the case of `Cc1ccc(C2=C(c3ccccc3)C(O)(c3ccccc3)C(c3ccccc3)=C2c2ccc(C)cc2)cc1`, the GI50 (786-0) is reported as > 100 µM (inactive), the GI50 (A498) is reported as > 100 µM (inactive) and the GI50 (A549) is reported as > 100 µM (inactive). For the same compound, the GI50 (ACHN) was > 100 µM (inactive), the GI50 (CCRF-CEM) was > 10 µM (inactive) and the GI50 (DLD-1) was > 100 µM (inactive). The GI50 (EKVX) was 64 µM (inactive), the GI50 (HCC 2998) was > 100 µM (inactive) and the GI50 (HCT-116) was 29.9 µM (inactive). For the same compound, the GI50 (HCT-15) was 35.2 µM, the GI50 (HOP-18) was > 100 µM (inactive) and the GI50 (HOP-62) was > 100 µM (inactive). The GI50 (HT-29) was 46.2 µM (inactive), the GI50 (IGROV-1) was > 100 µM (inactive) and the GI50 (K562) was > 100 µM (inactive). The GI50 (KM-20L2) was > 100 µM (inactive), the GI50 (KM12) was > 100 µM (inactive) and the GI50 (LXFL 529) was > 100 µM (inactive). The GI50 (M14) was 83.8 µM (inactive), the GI50 (M19-MEL) was > 100 µM (inactive) and the GI50 (MOLT-4) was 7.93 µM (inactive). The GI50 (Malme-3M) was > 100 µM (inactive), the GI50 (NCI-H226) was > 100 µM (inactive) and the GI50 (NCI-H23) was 69.3 µM (inactive). The GI50 (NCI-H460) was > 100 µM (inactive), the GI50 (NCI-H522) was > 100 µM (inactive) and the GI50 (OVCAR-5) was > 100 µM (inactive). The GI50 (OVCAR-8) was > 100 µM (inactive), the GI50 (RPMI-8226) was 35.7 µM (inactive) and the GI50 (RXF 393) was > 100 µM (inactive). For the same compound, the GI50 (RXF 631) was > 100 µM (inactive), the GI50 (SF-268) was > 100 µM (inactive) and the GI50 (SF-295) was 35.6 µM (inactive). For the same compound, the GI50 (SF-539) was > 100 µM (inactive), the GI50 (SK-MEL-28) was > 100 µM (inactive) and the GI50 (SK-MEL-2) was 6.17 µM (inactive). For the same compound, the GI50 (SK-MEL-5) was > 100 µM (inactive), the GI50 (SK-OV-3) was > 100 µM (inactive) and the GI50 (SN12C) was > 100 µM (inactive). The GI50 (SNB-19) was > 100 µM (inactive), the GI50 (SNB-75) was > 100 µM (inactive) and the GI50 (SNB-78) was > 100 µM (inactive). For the same compound, the GI50 (SR) was > 100 µM (inactive), the GI50 (SW-620) was > 100 µM (inactive) and the GI50 (TK-10) was 77.4 µM (inactive). For the same compound, the GI50 (U-251) was 31.5 µM (inactive), the GI50 (UACC-257) was > 100 µM (inactive) and the GI50 (UO-31) was 78.7 µM (inactive). For the same compound, the GI50 (XF498) was 44.5 µM (inactive).
With `CCNC1=Nc2ccc(Cl)cc2C(c2ccccc2)=NN1` the GI50 (786-0) was 17.8 µM (inactive), the GI50 (A498) was 29.9 µM (inactive) and the GI50 (A549) was 35.7 µM (inactive). For the same compound, the GI50 (ACHN) was 31.7 µM (inactive), the GI50 (CAKI-1) was 15 µM (inactive) and the GI50 (CCRF-CEM) was 38.4 µM (inactive). The GI50 (COLO 205) was 16.3 µM (inactive), the GI50 (DMS-114) was 15.4 µM (inactive) and the GI50 (DMS-273) was 10.9 µM (inactive). The GI50 (EKVX) was 45.9 µM (inactive), the GI50 (HCC 2998) was 18.7 µM (inactive) and the GI50 (HCT-15) was 16.9 µM. For the same compound, the GI50 (HL-60) was 22.3 µM (inactive), the GI50 (HOP-18) was 62.2 µM (inactive) and the GI50 (HOP-62) was 24.6 µM (inactive). The GI50 (HOP-92) was 24.4 µM (inactive), the GI50 (HT-29) was 15.8 µM (inactive) and the GI50 (IGROV-1) was 22.4 µM (inactive). The GI50 (K562) was 6.38 µM (inactive), the GI50 (KM12) was 12.9 µM (inactive) and the GI50 (LOX IMVI) was 18.9 µM (inactive). For the same compound, the GI50 (M14) was 17.3 µM (inactive), the GI50 (M19-MEL) was 18.1 µM (inactive) and the GI50 (MOLT-4) was 25.2 µM (inactive). For the same compound, the GI50 (Malme-3M) was 16.9 µM (inactive), the GI50 (NCI-H226) was 20.7 µM (inactive) and the GI50 (NCI-H23) was 27.5 µM (inactive). For the same compound, the GI50 (NCI-H522) was 14.6 µM (inactive), the GI50 (OVCAR-3) was 17.5 µM (inactive) and the GI50 (OVCAR-4) was 31.6 µM (inactive). The GI50 (OVCAR-5) was 21.8 µM (inactive), the GI50 (OVCAR-8) was 26.8 µM (inactive) and the GI50 (RPMI-8226) was 29 µM (inactive). The GI50 (RXF 393) was 25.5 µM (inactive), the GI50 (RXF 631) was 19.9 µM (inactive) and the GI50 (SF-268) was 31.3 µM (inactive). For the same compound, the GI50 (SF-295) was 19.2 µM (inactive), the GI50 (SF-539) was 19.8 µM (inactive) and the GI50 (SK-MEL-28) was 17.5 µM (inactive). For the same compound, the GI50 (SK-MEL-2) was 16.7 µM (inactive), the GI50 (SK-MEL-5) was 14.8 µM (inactive) and the GI50 (SK-OV-3) was 37.1 µM (inactive). For the same compound, the GI50 (SN12C) was 32.4 µM (inactive), the GI50 (SNB-19) was 41.7 µM (inactive) and the GI50 (SNB-75) was 19 µM (inactive). For the same compound, the GI50 (SNB-78) was 25.5 µM (inactive), the GI50 (SW-620) was 18 µM (inactive) and the GI50 (TK-10) was 28.4 µM (inactive). For the same compound, the GI50 (U-251) was 20.5 µM (inactive), the GI50 (UACC-257) was 18 µM (inactive) and the GI50 (UACC-62) was 14.6 µM (inactive). For the same compound, the GI50 (UO-31) was 30.2 µM (inactive) and the GI50 (XF498) was 25.8 µM (inactive).
